Results: article PMC5614982, “Impact of Gastric H^+/K^+-ATPase rs2733743 on the Intragastric pH-Values of Dexlansoprazole Injection in Chinese Subjects” (Frontiers in Pharmacology, 2017)
Marks after values point to notes of the source that are not given here.

Tested on: intragastric pH
Experiment: 24-h intragastric pH monitoring after single intravenous dexlansoprazole in healthy Chinese subjects
Format: in vivo, human
Details: 30 mg iv
Procedure: Dexlansoprazole injection (30 mg per vial) used in the PK and PD study was manufactured by Nanjing Yoko Pharma Co., Ltd. (Nanjing, China). Subjects received an intravenous infusion of 20 or 30 mg dexlansoprazole injection in sterile saline solution (100 mL/h, 60 min). The study drug was administrated with an infusing pump (SA213, Lifepum, Beijing, China) and given through an intravenous catheter in the antecubital vein opposite to the one from which blood samples were taken.
An ambulatory pH recorder (Orion II, MMS, USA) with a disposable pH catheter (VersaFlex, MMS, USA) was used to monitor intragastric pH. The electrode was placed in water for at least 10 min and then calibrated using standard buffer solutions (pH 1.07 and 7.01) before intubation. Both calibration and intubation processes were conducted under the guidance of MMS Virtual Instructor Program. The catheter, trans nasally placed 10 cm under the lower esophageal sphincter, was identified by a sharp decrease in pH (Wang et al., [2010], [2011]). Subjects were intubated on baseline and the day of dosing at about 7:30 a.m., and the intragastric pH data were recorded continuously for 24 h from 8:00 a.m. Intragastric pH was sampled every second, and the data were stored in a MMS Database program (MMS, USA). The PD parameters including Median (pH), Mean (pH), TpH≥3 (%), TpH≥4 (%), TpH≥6 (%), TpH≥6, and AUC^pH−t were analyzed by the MMS Database program.
Median (pH) and mean (pH) were well-investigated in most studies, and the percentage time of pH ≥ 4 (or pH ≥ 4 holding time ratio) was the benchmark for predicting clinical efficacy of PPIs in treating acid-related diseases (Metz et al., [2009]). Novel parameter TpH≥6 (time to first gastric pH ≥ 6, min) and AUCτ 1-τ 2pH-t (area under pH-time curve from τ1 to τ2, pH·s) were defined to evaluate the velocity and extent of pharmacodynamics with more accuracy. All parameters were calculated and compared according to time periods of 0–24, 0–4, 4–10, 10–14, and 14–24 h post dosing.
The parameter AUCτ 1-τ 2pH-t was calculated as follows:
Where t represented the time duration measured by seconds, AUCτ 1-τ 210-t was the area between the pH line = 10 and the pH-time curve, which was generated by the MMS software.
Baseline-adjusted PD parameters were calculated as follows: for example, ΔAUC^pH−t = AUC^pH−t − AUC^pH−tbaseline, ΔMean (pH) = Mean (pH) − Mean (pH)^baseline, and ΔMedian (pH) = Median (pH) − Median (pH)^baseline.

[1] = CYP2C19 EMs, H+/K+-ATPase Het (n = 8), 0–4 h
[2] = CYP2C19 EMs, H+/K+-ATPase Het (n = 8), 0–24 h
[3] = CYP2C19 EMs, H+/K+-ATPase Het (n = 8), 14–24 h
[4] = CYP2C19 EMs, H+/K+-ATPase Hom (n = 7), 0–4 h
[5] = CYP2C19 EMs, H+/K+-ATPase Hom (n = 7), 0–24 h
[6] = CYP2C19 EMs, H+/K+-ATPase Hom (n = 7), 14–24 h

`Cc1c(OCC(F)(F)F)ccnc1C[S@@+]([O-])c1nc2ccccc2[nH]1` [dexlansoprazole] was tested. Which “TpH≥6(%)” value (14–24 h) did it give?
Its value is 49.2 ± 25.2%.

And the “ΔMean (pH)” value (14–24 h)?
The value was 2.8 ± 1.4 pH.

What about the “ΔMedian (pH)” value (14–24 h) of the same compound?
The value was 3.1 ± 1.9 pH.

And the “ΔTpH≥3(%)” value (14–24 h)?
The value was 60.0 ± 26.0%.

And the “ΔTpH≥4 (%)” value (14–24 h)?
Its value is 54.8 ± 28.3%.

And the “ΔTpH≥6(%)” value (14–24 h)?
Its value is 35.2 ± 25.6%.

What about the “Mean (pH)” value (CYP2C19 EM (n = 11), 0–4 h) of the same compound?
Its value is 5.7 ± 1.6 pH.

And the “Median (pH)” value (CYP2C19 EM (n = 11), 0–4 h)?
Its value is 6.2 ± 2.1 pH.

What about the “TpH≥3(%)” value (CYP2C19 EM (n = 11), 0–4 h) of the same compound?
Its value is 73.9 ± 21.7%.

What about the “TpH≥4(%)” value (CYP2C19 EM (n = 11), 0–4 h) of the same compound?
Its value is 69.3 ± 24.3%.

What about the “TpH≥6(%)” value (CYP2C19 EM (n = 11), 0–4 h) of the same compound?
The value was 58.7 ± 31.9%.

What about the “ΔMean (pH)” value (CYP2C19 EM (n = 11), 0–4 h) of the same compound?
Its value is 3.2 ± 1.1 pH.

What about the “ΔMedian (pH)” value (CYP2C19 EM (n = 11), 0–4 h) of the same compound?
Its value is 3.9 ± 1.8 pH.

What about the “ΔTpH≥3(%)” value (CYP2C19 EM (n = 11), 0–4 h) of the same compound?
Its value is 48.6 ± 24.5%.

What about the “ΔTpH≥4 (%)” value (CYP2C19 EM (n = 11), 0–4 h) of the same compound?
Its value is 51.9 ± 17.7%.

What about the “ΔTpH≥6(%)” value (CYP2C19 EM (n = 11), 0–4 h) of the same compound?
The value was 53.0 ± 27.4%.

What about the “Mean (pH)” value (CYP2C19 EM (n = 11), 0–24 h) of the same compound?
Its value is 5.7 ± 1.3 pH.

And the “Median (pH)” value (CYP2C19 EM (n = 11), 0–24 h)?
The value was 5.9 ± 1.7 pH.

And the “TpH≥3(%)” value (CYP2C19 EM (n = 11), 0–24 h)?
The value was 80.0 ± 19.5%.

And the “TpH≥4(%)” value (CYP2C19 EM (n = 11), 0–24 h)?
The value was 73.0 ± 23.2%.

What about the “TpH≥6(%)” value (CYP2C19 EM (n = 11), 0–24 h) of the same compound?
The value was 56.4 ± 24.1%.

What about the “ΔMean (pH)” value (CYP2C19 EM (n = 11), 0–24 h) of the same compound?
The value was 2.8 ± 1.1^c pH.

What about the “ΔMedian (pH)” value (CYP2C19 EM (n = 11), 0–24 h) of the same compound?
Its value is 3.7 ± 1.5 pH.

And the “ΔTpH≥3(%)” value (CYP2C19 EM (n = 11), 0–24 h)?
Its value is 47.9 ± 20.2^c %.

What about the “ΔTpH≥4 (%)” value (CYP2C19 EM (n = 11), 0–24 h) of the same compound?
The value was 50.4 ± 21.3^c %.

What about the “ΔTpH≥6(%)” value (CYP2C19 EM (n = 11), 0–24 h) of the same compound?
Its value is 47.4 ± 19.7^c %.

And the “Mean (pH)” value (CYP2C19 EM (n = 11), 14–24 h)?
The value was 4.9 ± 1.7 pH.

What about the “Median (pH)” value (CYP2C19 EM (n = 11), 14–24 h) of the same compound?
The value was 4.5 ± 2.0 pH.

What about the “TpH≥3(%)” value (CYP2C19 EM (n = 11), 14–24 h) of the same compound?
The value was 67.5 ± 34.5%.

What about the “TpH≥4(%)” value (CYP2C19 EM (n = 11), 14–24 h) of the same compound?
Its value is 56.3 ± 37.2%.

And the “TpH≥6(%)” value (CYP2C19 EM (n = 11), 14–24 h)?
The value was 37.1 ± 25.0^c %.

What about the “ΔMean (pH)” value (CYP2C19 EM (n = 11), 14–24 h) of the same compound?
The value was 2.0 ± 1.2^c pH.

And the “ΔMedian (pH)” value (CYP2C19 EM (n = 11), 14–24 h)?
The value was 2.1 ± 1.8^c pH.

What about the “ΔTpH≥3(%)” value (CYP2C19 EM (n = 11), 14–24 h) of the same compound?
The value was 47.0 ± 27.6^c %.

What about the “ΔTpH≥4 (%)” value (CYP2C19 EM (n = 11), 14–24 h) of the same compound?
Its value is 38.6 ± 27.9^c %.

And the “ΔTpH≥6(%)” value (CYP2C19 EM (n = 11), 14–24 h)?
Its value is 21.1 ± 18.0^c %.

What about the “Mean (pH)” value [1] of the same compound?
The value was 4.7 ± 2.4 pH.

And the “Median (pH)” value [1]?
Its value is 4.5 ± 2.8 pH.

What about the “TpH≥3(%)” value [1] of the same compound?
Its value is 63.7 ± 35.7%.

And the “TpH≥4(%)” value [1]?
The value was 56.9 ± 39.3^c %.

What about the “TpH≥6(%)” value [1] of the same compound?
Its value is 39.4 ± 48.2%.

And the “ΔMean (pH)” value [1]?
Its value is 2.2 ± 0.8^c pH.

What about the “ΔMedian (pH)” value [1] of the same compound?
Its value is 1.9 ± 1.0^a^,^c pH.

What about the “ΔTpH≥3(%)” value [1] of the same compound?
The value was 36.4 ± 20.1%.

What about the “ΔTpH≥4 (%)” value [1] of the same compound?
The value was 35.0 ± 11.7%.

What about the “ΔTpH≥6(%)” value [1] of the same compound?
The value was 33.8 ± 39.0%.

What about the “Mean (pH)” value [2] of the same compound?
Its value is 5.1 ± 1.7 pH.

And the “Median (pH)” value [2]?
The value was 4.9 ± 2.1 pH.

What about the “TpH≥3(%)” value [2] of the same compound?
The value was 70.1 ± 26.3%.

And the “TpH≥4(%)” value [2]?
The value was 62.9 ± 33.1%.

What about the “TpH≥6(%)” value [2] of the same compound?
Its value is 48.0 ± 32.5%.

What about the “ΔMean (pH)” value [2] of the same compound?
The value was 2.3 ± 0.6^c pH.

And the “ΔMedian (pH)” value [2]?
The value was 2.9 ± 1.6 pH.

And the “ΔTpH≥3(%)” value [2]?
The value was 40.8 ± 11.1^c %.

And the “ΔTpH≥4 (%)” value [2]?
The value was 41.4 ± 17.3^c %.

And the “ΔTpH≥6(%)” value [2]?
The value was 37.3 ± 19.1%.

And the “Mean (pH)” value [3]?
Its value is 4.1 ± 2.1 pH.

And the “Median (pH)” value [3]?
The value was 3.5 ± 2.2 pH.

What about the “TpH≥3(%)” value [3] of the same compound?
The value was 53.0 ± 41.0%.

And the “TpH≥4(%)” value [3]?
The value was 44.6 ± 48.0%.

What about the “TpH≥6(%)” value [3] of the same compound?
Its value is 30.2 ± 32.6%.

And the “ΔMean (pH)” value [3]?
Its value is 1.2 ± 0.4^c pH.

What about the “ΔMedian (pH)” value [3] of the same compound?
Its value is 0.5 ± 0.5^c pH.

What about the “ΔTpH≥3(%)” value [3] of the same compound?
The value was 31.5 ± 13.0^c %.

And the “ΔTpH≥4 (%)” value [3]?
The value was 25.1 ± 16.9%.

What about the “ΔTpH≥6(%)” value [3] of the same compound?
The value was 11.6 ± 2.9^c %.

What about the “Mean (pH)” value [4] of the same compound?
The value was 6.6 ± 0.5 pH.

What about the “Median (pH)” value [4] of the same compound?
The value was 7.8 ± 0.1 pH.

What about the “TpH≥3(%)” value [4] of the same compound?
Its value is 78.7 ± 10.0%.

And the “TpH≥4(%)” value [4]?
Its value is 77.1 ± 11.6^b %.

What about the “TpH≥6(%)” value [4] of the same compound?
Its value is 75.5 ± 12.2%.

And the “ΔMean (pH)” value [4]?
Its value is 4.3 ± 0.4^b pH.

And the “ΔMedian (pH)” value [4]?
The value was 5.9 ± 0.4^b pH.

What about the “ΔTpH≥3(%)” value [4] of the same compound?
The value was 62.5 ± 11.6%.

What about the “ΔTpH≥4 (%)” value [4] of the same compound?
Its value is 67.2 ± 2.4%.

What about the “ΔTpH≥6(%)” value [4] of the same compound?
Its value is 70.1 ± 4.5%.

And the “Mean (pH)” value [5]?
Its value is 6.8 ± 0.2 pH.

And the “Median (pH)” value [5]?
The value was 7.5 ± 0.4 pH.

And the “TpH≥3(%)” value [5]?
The value was 95.1 ± 1.1%.

And the “TpH≥4(%)” value [5]?
Its value is 87.9 ± 4.7%.

What about the “TpH≥6(%)” value [5] of the same compound?
The value was 73.4 ± 3.7%.

And the “ΔMean (pH)” value [5]?
The value was 4.3 ± 0.4^a^,^b pH.

What about the “ΔMedian (pH)” value [5] of the same compound?
The value was 5.4 ± 0.3 pH.

And the “ΔTpH≥3(%)” value [5]?
The value was 77.4 ± 6.3^a^,^b %.

What about the “ΔTpH≥4 (%)” value [5] of the same compound?
Its value is 78.0 ± 1.5^a^,^b %.

And the “ΔTpH≥6(%)” value [5]?
Its value is 68.7 ± 7.9%.

And the “Mean (pH)” value [6]?
Its value is 6.2 ± 0.4 pH.

And the “Median (pH)” value [6]?
Its value is 6.3 ± 1.3 pH.

What about the “TpH≥3(%)” value [6] of the same compound?
The value was 96.8 ± 1.2%.

What about the “TpH≥4(%)” value [6] of the same compound?
Its value is 80.4 ± 6.2%.

And the “TpH≥6(%)” value [6]?
Its value is 51.5 ± 10.9%.

What about the “ΔMean (pH)” value [6] of the same compound?
The value was 3.7 ± 0.5^a^,^b pH.

What about the “ΔMedian (pH)” value [6] of the same compound?
Its value is 4.2 ± 0.8^b pH.

And the “ΔTpH≥3(%)” value [6]?
The value was 83.1 ± 5.9^a^,^b %.

And the “ΔTpH≥4 (%)” value [6]?
The value was 72.4 ± 1.5%.

What about the “ΔTpH≥6(%)” value [6] of the same compound?
The value was 45.8 ± 17.4^a^,^b %.
